Several values for one entry are separate records, joined by “and”; a condition that tells them apart may be missing. Equal values may be shown once.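 Protocol summary: plate cells (96-well), add compound at 5 concentrations, incubate 48 h, interpolate endpoints linearly. GI50 marks 50% less growth. TGI: total growth inhibition.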
Columns and labels:
Test in all cases: NCI anticancer screen, dose series, 48 h
SK-MEL-28 melanoma = test system: SK-MEL-28 melanoma
UACC-62 melanoma = test system: UACC-62 melanoma
SK-MEL-5 melanoma = test system: SK-MEL-5 melanoma
A549 NSCLC = test system: A549 NSCLC
OVCAR-5 ovarian = test system: OVCAR-5 ovarian
M14 melanoma = test system: M14 melanoma
SN12C renal = test system: SN12C renal
K-562 leukemia = test system: K-562 leukemia
SW-620 colon = test system: SW-620 colon
PC-3 prostate = test system: PC-3 prostate

| Compound | TGI (SK-MEL-28 melanoma) | TGI (UACC-62 melanoma) | TGI (SK-MEL-5 melanoma) | TGI (A549 NSCLC) | TGI (OVCAR-5 ovarian) | TGI (M14 melanoma) | TGI (SN12C renal) | TGI (K-562 leukemia) | TGI (SW-620 colon) | GI50 (SK-MEL-28 melanoma) | GI50 (UACC-62 melanoma) | GI50 (SK-MEL-5 melanoma) | GI50 (PC-3 prostate) | TGI (PC-3 prostate) | GI50 (A549 NSCLC) | GI50 (OVCAR-5 ovarian) | GI50 (SN12C renal) | GI50 (K-562 leukemia) | GI50 (SW-620 colon) | GI50 (M14 melanoma) |
| --- | --- | --- | --- | --- | --- | --- | --- | --- | --- | --- | --- | --- | --- | --- | --- | --- | --- | --- | --- | --- |
| COC(=O)C(Cc1nc2ccc(Cl)cc2[nH]c1=O)/C(=N\N)C(=O)Nc1cc(C)c(Cl)cc1S(=O)(=O)O (configuration not stated) | > 100 µM | > 100 µM | > 100 µM | > 100 µM | > 100 µM | > 100 µM | > 100 µM | > 100 µM |  |  |  |  |  |  |  |  |  |  |  |  |
| CC12CP(=O)(c3ccccc3)CC1C2(Cl)Cl (configuration not stated) | > 100 µM | > 100 µM | > 100 µM | > 100 µM |  | > 100 µM | > 100 µM | > 100 µM | > 100 µM |  |  |  |  |  |  |  |  |  |  |  |
| CN1CCOC(c2ccccc2)O1 (configuration not stated) | > 100 µM | > 100 µM | > 100 µM | > 100 µM | > 100 µM | > 100 µM | > 100 µM | > 100 µM | > 100 µM |  |  |  |  |  |  |  |  |  |  |  |
| N#Cc1c2ccccc2cn1-c1ccc(F)cc1 | > 100 µM | > 100 µM |  | > 100 µM | > 100 µM | > 100 µM |  | > 100 µM | > 100 µM |  |  |  |  |  |  |  |  |  |  |  |
| Cc1cc(N(CCC#N)CCC#N)ccc1N=Nc1ccc(C(=O)O)cc1 | > 100 µM | > 100 µM | > 100 µM | > 100 µM | > 100 µM | > 100 µM | > 100 µM |  | > 100 µM |  |  |  |  |  |  |  |  |  |  |  |
| COc1cc2c3c(n(C)c(=O)c2cc1OC)-c1cc2c(cc1/C3=C\CN)OCO2 | > 48.5 µM |  | 2.32 µM | 2.81 µM | > 35.7 µM |  | > 100 µM |  | > 41.3 µM | 7.38 µM | 0.0731 µM | 0.296 µM | 7.03 µM | > 100 µM | 0.273 µM | 2.16 µM | 0.565 µM | 106 nM |  |  |
| Cc1ccccc1N1C(=O)C2C=CC(n3[nH]c(=O)n(Cc4ccccc4)c3=O)CC2C1=O (configuration not stated) | > 100 µM | > 100 µM | > 100 µM | > 100 µM | > 100 µM | > 100 µM | > 100 µM | > 100 µM | > 100 µM |  |  |  |  |  |  |  |  |  |  |  |
| CCCNC(=S)NNC(=O)CSc1nc(-c2ccccc2)c(-c2ccccc2)[nH]1 | > 100 µM | > 100 µM | 62.1 µM | > 100 µM | > 100 µM | 89.6 µM | > 100 µM |  | > 100 µM |  |  |  |  |  |  |  |  |  |  |  |
| O=C(CCc1n[nH]c(=S)o1)Nc1ccccc1C(F)(F)F | > 100 µM | > 100 µM | > 100 µM |  | > 100 µM | > 100 µM | > 100 µM | > 100 µM | 49 µM |  |  |  |  |  |  |  |  |  |  |  |
| C1=CC(N(c2ccccc2)C2C=CCCC2)CCC1 (configuration not stated) | > 100 µM | > 100 µM | > 100 µM | > 100 µM |  | > 100 µM | > 100 µM | > 100 µM | > 100 µM |  |  |  |  |  |  |  |  |  |  |  |
| O=C1/C(=C/c2cccc(Cl)c2Cl)N=C(c2ccccc2)N1C1CC1 |  | 19.5 µM | 24.7 µM | > 50 µM | 21.1 µM |  | 17.5 µM | > 50 µM | > 50 µM |  | 9.2 µM | 11.4 µM | 8.85 µM | 17.2 µM | 19.7 µM | 10.4 µM | 8.62 µM | 13500 nM | 26.7 µM |  |
| CCOc1ccc(NC(=O)CC#N)cc1 | > 100 µM | > 100 µM | > 100 µM | > 100 µM | > 100 µM | > 100 µM | > 100 µM | > 100 µM | > 100 µM |  |  |  |  |  |  |  |  |  |  |  |
| O=C(Nc1ccncc1)C(=O)c1cn(S(=O)(=O)c2ccc(F)cc2)c2ccccc12 | 36.2 µM | > 100 µM | 16.3 µM | > 100 µM | > 100 µM | > 100 µM | > 100 µM |  | > 100 µM | 6.82 µM | 3.4 µM | 1.84 µM | 4.45 µM | > 100 µM | 18.5 µM | 7.96 µM | 6.58 µM |  | 2.34 µM | 1780 nM |
| O=C(c1ccccc1)c1cc2ccccc2o1 | > 100 µM | > 100 µM | > 100 µM | > 100 µM | > 100 µM | > 100 µM | > 100 µM |  | > 100 µM | > 100 µM | > 100 µM | 80 µM | 85.2 µM | > 100 µM | 95 µM | > 100 µM | > 100 µM |  | 80 µM | > 100000 nM |
| CCN1CCC(O)(c2ccc(OC)cc2)C(C(=O)c2ccc(OC)cc2)C1 (configuration not stated) | 10.6 µM | 32.2 µM | 29 µM | 37 µM | 32.3 µM | 29.7 µM | 42.5 µM | > 100 µM | 25.9 µM |  |  |  |  |  |  |  |  |  |  |  |
| NC(=O)C12CC3CC(CC(F)(C3)C1)C2 | > 100 µM | > 100 µM |  | > 100 µM | > 100 µM | > 100 µM |  | > 100 µM | > 100 µM |  |  |  |  |  |  |  |  |  |  |  |
| S=c1sc2c(Cl)nc(Cl)nc2n1-c1ccccc1 | 29 µM | 27.8 µM | > 100 µM | > 100 µM | > 100 µM | 43 µM | > 100 µM | > 100 µM | 68.1 µM |  |  |  |  |  |  |  |  |  |  |  |
| Cc1ccc(/C=C/C(=O)c2sc(-c3nc(C)c(C(=O)/C=C/c4ccc(C)cc4)s3)nc2C)cc1 | > 100 µM | > 100 µM | > 100 µM | > 100 µM | > 100 µM |  | > 100 µM | > 100 µM | > 100 µM |  |  |  |  |  |  |  |  |  |  |  |
| CCOc1ccccc1NC(=O)C(=O)CC(=O)c1sc(Nc2nnc(-c3ccc(Cl)c(Cl)c3)o2)nc1C | > 100 µM | > 100 µM | > 100 µM | > 100 µM | > 100 µM | > 100 µM | > 100 µM | > 100 µM | > 100 µM |  |  |  |  |  |  |  |  |  |  |  |
| COc1cccc(C2=NC(C(C)C)CO2)c1 (configuration not stated) | > 100 µM | > 100 µM | > 100 µM | > 100 µM | > 100 µM | > 100 µM | > 100 µM | > 100 µM | > 100 µM |  |  |  |  |  |  |  |  |  |  |  |
| COc1cc(NCc2ccc3nc(N)nc(N)c3c2C)cc(OC)c1OC (tested in a mixture with another compound) | 50.6 µM |  |  | 21.9 µM | 35.9 µM |  |  | 46.3 µM | 16.4 µM and 50.9 µM |  |  |  |  | 37.4 µM | 0.000138 µM | 0.0287 µM | 0.000457 µM | 0.159 nM | 0.000285 µM | 22.2 nM and 25 nM |
